According to the NIST ThermoML archive (doi:10.1021/acs.jced.8b00403):

Assay: wn = mass fraction of the nth substance listed
Settings: 101.33 kPa, Liquid; for viscosity: Concentric cylinders viscometry; for mass density: Vibrating tube method

OCCCO [propan-1,3-diol] + O
Settings	mass density [kg/m3]	viscosity [mPa·s]
253.15 K, w1 = 0.4453	1053.7	40.11
253.15 K, w1 = 0.501	1058	49.09
253.15 K, w1 = 0.6123	1068.2	85.87
253.15 K, w1 = 0.7236	1074.9	158.67
253.15 K, w1 = 0.8349	1078.5	267.81
253.15 K, w1 = 0.9277	1079.6	418.56
253.15 K, w1 = 1	1078.2	574.39
258.15 K, w1 = 0.4453	1051.8	29.02
258.15 K, w1 = 0.501	1055.9	35.24
258.15 K, w1 = 0.6123	1065.8	63.15
258.15 K, w1 = 0.7236	1072.2	110.64
258.15 K, w1 = 0.8349	1075.5	184.18
258.15 K, w1 = 0.9277	1076.5	293.3
258.15 K, w1 = 1	1075.4	409.88
263.15 K, w1 = 0.334	1035.2	12.02
263.15 K, w1 = 0.4453	1047.7	19.91
263.15 K, w1 = 0.501	1052.5	24.97
263.15 K, w1 = 0.6123	1062.1	44.2
263.15 K, w1 = 0.7236	1068.4	76.18
263.15 K, w1 = 0.8349	1072.2	132.29
263.15 K, w1 = 0.9277	1073.2	206.53
263.15 K, w1 = 1	1072.3	289.5
268.15 K, w1 = 0.2226	1022.1	5.908
268.15 K, w1 = 0.334	1033.9	9.252
268.15 K, w1 = 0.4453	1045.7	15.12
268.15 K, w1 = 0.501	1050.3	18.81
268.15 K, w1 = 0.6123	1059.5	32.82
268.15 K, w1 = 0.7236	1065.6	55.72
268.15 K, w1 = 0.8349	1069.3	95.75
268.15 K, w1 = 0.9277	1070.1	149.24
268.15 K, w1 = 1	1069	207.88
273.15 K, w1 = 0.1113	1009.7	2.894
273.15 K, w1 = 0.2226	1021.3	4.695
273.15 K, w1 = 0.334	1032.5	7.257
273.15 K, w1 = 0.4453	1043.7	11.74
273.15 K, w1 = 0.501	1048.1	14.52
273.15 K, w1 = 0.6123	1056.9	24.88
273.15 K, w1 = 0.7236	1062.7	41.58
273.15 K, w1 = 0.8349	1066.3	70.71
273.15 K, w1 = 0.9277	1067.1	109.69
273.15 K, w1 = 1	1065.9	152.75
283.15 K, w1 = 0.1113	1008.8	2.055
283.15 K, w1 = 0.2226	1019.2	3.165
283.15 K, w1 = 0.334	1029.2	4.748
283.15 K, w1 = 0.4453	1039.3	7.451
283.15 K, w1 = 0.501	1043.3	9.1
283.15 K, w1 = 0.6123	1051.4	15.1
283.15 K, w1 = 0.7236	1056.8	24.57
283.15 K, w1 = 0.8349	1060.2	40.76
283.15 K, w1 = 0.9277	1061	62.32
283.15 K, w1 = 1	1059.8	86.48
293.15 K, w1 = 0.1113	1006.7	1.529
293.15 K, w1 = 0.2226	1016.3	2.251
293.15 K, w1 = 0.334	1025.4	3.318
293.15 K, w1 = 0.4453	1034.5	5.035
293.15 K, w1 = 0.501	1038.3	6.074
293.15 K, w1 = 0.6123	1045.7	9.77
293.15 K, w1 = 0.7236	1050.9	15.48
293.15 K, w1 = 0.8349	1054	25
293.15 K, w1 = 0.9277	1054.7	37.6
293.15 K, w1 = 1	1053.6	52.01
303.15 K, w1 = 0.1113	1004.1	1.189
303.15 K, w1 = 0.2226	1012.9	1.689
303.15 K, w1 = 0.334	1021.1	2.421
303.15 K, w1 = 0.4453	1029.5	3.585
303.15 K, w1 = 0.501	1033	4.306
303.15 K, w1 = 0.6123	1039.9	6.724
303.15 K, w1 = 0.7236	1044.8	10.32
303.15 K, w1 = 0.8349	1047.8	16.26
303.15 K, w1 = 0.9277	1048.5	24.03
303.15 K, w1 = 1	1047.4	32.92
313.15 K, w1 = 0.1113	1000.4	0.9825
313.15 K, w1 = 0.2226	1008.3	1.332
313.15 K, w1 = 0.334	1016.3	1.857
313.15 K, w1 = 0.4453	1023.9	2.659
313.15 K, w1 = 0.501	1027.3	3.148
313.15 K, w1 = 0.6123	1033.8	4.725
313.15 K, w1 = 0.7236	1038.6	7.184
313.15 K, w1 = 0.8349	1041.5	11.05
313.15 K, w1 = 0.9277	1042.2	16.04
313.15 K, w1 = 1	1041.1	21.79
323.15 K, w1 = 0.1113	996.2	0.7887
323.15 K, w1 = 0.2226	1003.5	1.076
323.15 K, w1 = 0.334	1010.8	1.465
323.15 K, w1 = 0.4453	1018.1	2.051
323.15 K, w1 = 0.501	1021.3	2.401
323.15 K, w1 = 0.6123	1027.4	3.522
323.15 K, w1 = 0.7236	1032.1	5.219
323.15 K, w1 = 0.8349	1035	7.801
323.15 K, w1 = 0.9277	1035.8	11.15
323.15 K, w1 = 1	1034.8	15
333.15 K, w1 = 0.1113	991.1	0.6769
333.15 K, w1 = 0.2226	998.3	0.8845
333.15 K, w1 = 0.334	1005.2	1.194
333.15 K, w1 = 0.4453	1011.8	1.641
333.15 K, w1 = 0.501	1014.8	1.885
333.15 K, w1 = 0.6123	1020.9	2.698
333.15 K, w1 = 0.7236	1025.4	3.9
333.15 K, w1 = 0.8349	1028.3	5.713
333.15 K, w1 = 0.9277	1029.3	8.023
333.15 K, w1 = 1	1028.4	10.72
343.15 K, w1 = 0.1113	985.3	0.5651
343.15 K, w1 = 0.2226	992.4	0.7245
343.15 K, w1 = 0.334	999.3	0.9821
343.15 K, w1 = 0.4453	1005.3	1.301
343.15 K, w1 = 0.501	1008.4	1.512
343.15 K, w1 = 0.6123	1014.1	2.123
343.15 K, w1 = 0.7236	1018.5	3.01
343.15 K, w1 = 0.8349	1021.5	4.303
343.15 K, w1 = 0.9277	1022.6	5.933
343.15 K, w1 = 1	1021.9	7.855
353.15 K, w1 = 0.1113	978.6	0.4871
353.15 K, w1 = 0.2226	986.3	0.6668
353.15 K, w1 = 0.334	992.6	0.8548
353.15 K, w1 = 0.4453	998.5	1.09
353.15 K, w1 = 0.501	1001.2	1.21
353.15 K, w1 = 0.6123	1006.8	1.731
353.15 K, w1 = 0.7236	1011.7	2.423
353.15 K, w1 = 0.8349	1014.4	3.317
353.15 K, w1 = 0.9277	1015.8	4.515
353.15 K, w1 = 1	1015.3	5.916
